For 9 molecules, Ratio IC50, inhibition in vivo and UI results are on record in ChEMBL document CHEMBL3751682, “Synthesis, anti-inflammatory, ulcerogenic and cyclooxygenase activities of indenopyrimidine derivatives” (Bioorg Med Chem Lett, 2016).

Data set [1] can be described thus: Ratio of IC50 for human COX2 to IC50 for ovine COX1 by prostaglandin biosynthesis assay.
For data set [2], the system named is Rattus norvegicus. The experiment in a line: Anti-inflammatory activity in albino Wistar rat assessed as inhibition of carrageenan-induced paw edema at 25 mg/kg, po measured every one hour for 5 hrs. Type of data set: functional.
Data set [3] deals with Rattus norvegicus. The experiment in a line: Anti-inflammatory activity in albino Wistar rat assessed as inhibition of carrageenan-induced paw edema at 50 mg/kg, po measured every one hour for 5 hrs. It counts as functional.
The test system of data set [4] is Rattus norvegicus. The experiment in a line: Ulcerogenicity in albino Wistar rat assessed as ulcer index at 50 mg/kg, po after 20 hrs. The note with it: in vivo. Type of data set: toxicity, organism-based.
For data set [5], the system named is Rattus norvegicus. The experiment in a line: Anti-inflammatory activity in albino Wistar rat assessed as inhibition of carrageenan-induced paw edema at 30 mg/kg, po measured every one hour for 5 hrs. Type of data set: functional.
Data set [6] concerns Rattus norvegicus. The experiment in a line: Ulcerogenicity in albino Wistar rat assessed as ulcer index at 100 mg/kg, po after 20 hrs. It counts as toxicity, organism-based. The note with it: in vivo.

Consider `Cc1ccc(-c2cc(C(F)(F)F)nn2-c2ccc(S(N)(=O)=O)cc2)cc1`, for which, in data set [1], the Ratio IC50 stood at 0.04.

`Nc1nc(-c2ccc(Br)cc2)c2c(n1)-c1ccccc1C2=O`: the inhibition in vivo at 25 mg/kg with Rattus norvegicus [2] amounted to 76.7%. In the data set on Rattus norvegicus [3], the inhibition in vivo at 50 mg/kg was 80%. The UI in the data set on Rattus norvegicus [4] is listed as 2.9. Moreover, the Ratio IC50 in data set [1] came out at 0.69.

Turning to `Nc1nc(-c2ccc([N+](=O)[O-])cc2)c2c(n1)-c1ccccc1C2=O`, the inhibition in vivo at 25 mg/kg in the data set with Rattus norvegicus [2] was found to be 77.3%. The inhibition in vivo at 50 mg/kg in the data set on Rattus norvegicus [3] is 81.3%. Also, the UI in the data set on Rattus norvegicus [4] is on record as 2.9.

Regarding `COc1cccc(-c2nc(N)nc3c2C(=O)c2ccccc2-3)c1`, the inhibition in vivo at 25 mg/kg in the data set with Rattus norvegicus [2] amounted to 75.3%. Also, in the data set with Rattus norvegicus [3], the inhibition in vivo at 50 mg/kg came to 78%. In addition, in the data set on Rattus norvegicus [4], the UI was found to be 2.9. Besides, the Ratio IC50 in data set [1] is 0.68.

Consider `Nc1nc(-c2cccc([N+](=O)[O-])c2)c2c(n1)-c1ccccc1C2=O`, for which the inhibition in vivo at 25 mg/kg in the data set with Rattus norvegicus [2] stood at 76%. Further, the inhibition in vivo at 50 mg/kg in the data set with Rattus norvegicus [3] worked out at 79.3%. The UI with Rattus norvegicus [4] was determined as 2.9. In data set [1], the Ratio IC50 was found to be 0.7.

On to `O=C(O)Cc1ccccc1Nc1c(Cl)cccc1Cl` [DICLOFENAC], for which, in the data set on Rattus norvegicus [5], the inhibition in vivo at 30 mg/kg is 85.3%. Moreover, in the data set on Rattus norvegicus [6], the UI was found to be 5.7.

With `Nc1nc(-c2ccc(Cl)cc2)c2c(n1)-c1ccccc1C2=O`, in the data set on Rattus norvegicus [2], the inhibition in vivo at 25 mg/kg worked out at 76%. The inhibition in vivo at 50 mg/kg in the data set on Rattus norvegicus [3] is 78%. In addition, the UI with Rattus norvegicus [4] is given as 3. In addition, the Ratio IC50 in data set [1] came out at 0.7.

Take `COc1cc(-c2nc(N)nc3c2C(=O)c2ccccc2-3)cc(OC)c1OC`: the inhibition in vivo at 25 mg/kg with Rattus norvegicus [2] is 75.3%. In the data set on Rattus norvegicus [3], the inhibition in vivo at 50 mg/kg was 78.7%. In addition, the UI with Rattus norvegicus [4] is given as 2.8. Also, in data set [1], the Ratio IC50 was 0.69.

Take `Nc1nc(-c2ccccc2)c2c(n1)-c1ccccc1C2=O`: the inhibition in vivo at 25 mg/kg with Rattus norvegicus [2] stood at 76.7%. Besides, the inhibition in vivo at 50 mg/kg in the data set on Rattus norvegicus [3] was 80.7%. Also, in the data set on Rattus norvegicus [4], the UI is on record as 3.
